Source: US9101577B2, “Analgesic pharmaceutical composition for oral administration” (Warszawski Uniwersytet Medyczny, priority 2011, dated 2015)

Tested on: Male Wistar rats
Assay: Acute activity after single p.o. administration, paw withdrawal test (Randall and Selitto), % of analgesia
Assay type: in vivo, rat
Settings: for effect on analgesic activity of codeine / activity on codeine analgesia compared to micronized form: 15 mg magnesium ions/kg p.o. with codeine 175 mg/kg p.o.; for activity on morphine analgesia in comparison (to micronized magnesium lactate / to micronized form) / effect on morphine analgesia / enhancement of morphine analgesia lasted up to: 15 mg magnesium ions/kg p.o. with morphine 15 mg/kg p.o.; for analgesic activity on separate administration (codeine study) / analgesic activity / pain perception threshold on separate administration (dihydrocodeine study) / analgesic activity / pain threshold when administered alone (morphine study) / analgesic activity on separate administration (oxycodone study) / analgesic activity on separate administration (tramadol study): single separate administration p.o., magnesium salts 15 mg magnesium ions/kg; for analgesic activity on separate administration (codeine study): codeine 175 mg/kg; for analgesic activity / pain perception threshold on separate administration (dihydrocodeine study): dihydrocodeine 50 mg/kg; for analgesic activity / pain threshold when administered alone (morphine study): morphine 15 mg/kg; for analgesic activity on separate administration (oxycodone study): oxycodone 5 mg/kg; for analgesic activity on separate administration (tramadol study): tramadol 125 mg/kg
Experimental: Male Wistar rats (250-300 g) were housed in a room maintained at a temperature of 20±2° C. under 12 h-12 h light-dark cycles. The animals had free access to food and water. Experimental groups consisted of six rats.
Drugs • Morphine at a dose of 15 mg/kg, codeine at a dose of 175 mg/kg, tramadol at a dose of 125 mg/kg and oxycodone at a dose of 5 mg/kg were dissolved in distilled water; • Dihydrocodeine at a dose of 50 mg/kg was suspended in 1% solution of methylcellulose; • Magnesium lactate (in micronized form)—at a dose of 15 mg magnesium ions/kg (150 mg of magnesium lactate/kg) was suspended in 0.5% solution of methylcellulose; • Magnesium lactate in normal (non-micronized) form—at doses of 15 or 30 mg magnesium ions/kg (150 or 300 mg of magnesium lactate/kg, respectively) was suspended in 0.5% solution of methylcellulose; • Magnesium citrate (in micronized and normal form)—at a dose of 15 mg magnesium ions/kg (112 mg of magnesium citrate/kg) was dissolved in distilled water; • Magnesium hydroaspartate (in micronized and normal form)—at a dose of 15 mg magnesium ions/kg (216 mg of magnesium hydroaspartate/kg) was suspended in 0.5% solution of methylcellulose; • Magnesium chloride (in micronized and normal form)—at a dose of 15 mg magnesium ions/kg (59.5 mg of magnesium chloride/kg) was dissolved in distilled water; • Control animals received a 0.5% solution of methylcellulose, a 1% solution of methylcellulose and distilled water, respectively, according to the same time schedule.
Magnesium salts and investigated opioids were administered concomitantly.
The micronized form of magnesium salts used in experiments contains particles of magnesium compounds of size D90<50 μm.
The normal magnesium salts form used in experiments contains particles of sizes commonly available in the market.
Acute activity of investigated drugs was measured in short time periods (from 5 to 300 min) after single administration.
All drugs were administered per os (p.o.); literally—orally. However, in practice, drugs were administered intragastric via a gastric tube.
Changes in pain thresholds were determined using a mechanical stimuli—the modification of the classic paw withdrawal test described by Randall and Selitto [1957]. In order to produce mechanical stimulation, progressively increasing pressure was applied to the dorsal surface of the rat's paw using an analgesymeter. The instrument used increased the force on the paw at a rate of 32 grams per second. The nociceptive threshold was defined as force in grams, at which the rat attempted to withdraw its right hindpaw and values of pressure were recorded at this very moment. At least two observers controlled the response.
Nociceptive thresholds (average of two trials) measured for each animal before single administration of investigated drugs (measurement of acute activity) or in day 0 before the first administration (measurement of prolonged activity) constituted the baseline pain threshold—A. Next, measurements of the withdrawal threshold to mechanical stimuli were performed at 5, 15, 30, 60, 90, 120, 180, 240, 300 min after drug administration (measurements of acute activity) or every day before drug administration (measurements of prolonged activity)—B.
In all experimental sessions (i.e. every day, each drug investigated) values of thresholds obtained (B) were compared to baseline (A).
Changes in pain threshold were calculated as a percent of baseline value according to the following formula:
[formula] • C—% of analgesia; A—pressure (in g), baseline pain threshold; B—pressure (in g) in consecutive measurements.
Percents of analgesia values calculated as above for individual animals were subsequently used to calculate average values in particular experimental groups and for statistical analysis.
The results are expressed as mean values±standard deviation of the mean (±S.E.M.).

[1] = single administration, 15 mg magnesium ions/kg p.o. with dihydrocodeine 50 mg/kg p.o.
[2] = single administration, 15 mg magnesium ions/kg p.o. with tramadol 125 mg/kg p.o.
[3] = single administration, 15 mg magnesium ions/kg p.o. with oxycodone 5 mg/kg p.o.

N[C@@H](CC(=O)O)C(=O)O [micronized magnesium hydroaspartate, Magnesium hydroaspartate]
effect on analgesic activity of codeine (single administration): also enhanced codeine analgesia | activity on dihydrocodeine analgesia in comparison (to micronized form / to magnesium lactate) [1]: lasted a shorter time | effect on dihydrocodeine analgesia [1]: also enhanced dihydrocodeine analgesia | activity on morphine analgesia in comparison (to micronized magnesium lactate / to micronized form) (single administration): weaker, although significant | effect on morphine analgesia (single administration): also enhanced morphine analgesia | enhancement of morphine analgesia lasted up to (single administration): 180 min | activity on tramadol analgesia in comparison (to micronized form / to magnesium chloride) [2]: weaker throughout the study | effect on antinociceptive activity of tramadol [2]: also enhanced tramadol analgesia | analgesic activity on separate administration (codeine study): did not exhibit analgesic activity | analgesic activity / pain perception threshold on separate administration (dihydrocodeine study): did not exhibit analgesic activity | analgesic activity / pain threshold when administered alone (morphine study): did not alter the pain threshold | analgesic activity on separate administration (oxycodone study): showed no analgesic activity | analgesic activity on separate administration (tramadol study): did not exhibit analgesic activity

Magnesium citrate [normal magnesium citrate]
activity on codeine analgesia compared to micronized form (single administration): significantly weaker | activity on dihydrocodeine analgesia in comparison (to micronized form / to magnesium lactate) [1]: significantly weaker | activity on morphine analgesia in comparison (to micronized magnesium lactate / to micronized form) (single administration): much weaker | activity on oxycodone analgesia compared to micronized form [3]: enhanced oxycodone analgesia significantly less when compared to the micronized form | analgesic activity on separate administration (codeine study): did not exhibit analgesic activity | analgesic activity / pain perception threshold on separate administration (dihydrocodeine study): did not exhibit analgesic activity | analgesic activity / pain threshold when administered alone (morphine study): did not alter the pain threshold | analgesic activity on separate administration (oxycodone study): showed no analgesic activity | analgesic activity on separate administration (tramadol study): did not exhibit analgesic activity

Magnesium citrate
effect on oxycodone analgesia [3]: also enhanced oxycodone analgesia

Magnesium citrate [micronized magnesium citrate]
effect on analgesic activity of codeine (single administration): also enhanced codeine analgesia | activity on dihydrocodeine analgesia in comparison (to micronized form / to magnesium lactate) [1]: lasted a shorter time | effect on dihydrocodeine analgesia [1]: also enhanced dihydrocodeine analgesia | activity on morphine analgesia in comparison (to micronized magnesium lactate / to micronized form) (single administration): weaker, although significant | effect on morphine analgesia (single administration): also enhanced morphine analgesia | enhancement of morphine analgesia lasted up to (single administration): 120 min | effect on antinociceptive activity of tramadol [2]: also enhanced tramadol analgesia | analgesic activity on separate administration (codeine study): did not exhibit analgesic activity | analgesic activity / pain perception threshold on separate administration (dihydrocodeine study): did not exhibit analgesic activity | analgesic activity / pain threshold when administered alone (morphine study): did not alter the pain threshold | analgesic activity on separate administration (oxycodone study): showed no analgesic activity | analgesic activity on separate administration (tramadol study): did not exhibit analgesic activity

[Cl-].[Cl-].[Mg+2] [micronized magnesium chloride, Magnesium chloride]
effect on analgesic activity of codeine (single administration): significantly enhanced the analgesic activity of codeine | effect on dihydrocodeine analgesia [1]: significantly enhanced dihydrocodeine analgesia | time course of activity on dihydrocodeine analgesia [1]: gradually increased and reached a maximum between min 45 and 90 of the measurements and then became weaker by min 210 | effect on morphine analgesia (single administration): significantly enhanced morphine analgesia | effect on oxycodone analgesia [3]: significantly enhanced oxycodone analgesia | time at which activity on oxycodone analgesia appeared [3]: 5 min | time course of activity on oxycodone analgesia [3]: maintained at a constant level up to min 30 of the study, then became weaker in min 45 and disappeared in min 60 | effect on antinociceptive activity of tramadol [2]: increased antynociceptive activity of tramadol | analgesic activity on separate administration (codeine study): did not exhibit analgesic activity | analgesic activity / pain perception threshold on separate administration (dihydrocodeine study): did not exhibit analgesic activity | analgesic activity / pain threshold when administered alone (morphine study): Neither morphine nor magnesium lactate and chloride in micronized or normal form administered alone showed analgesic activity | analgesic activity on separate administration (oxycodone study): showed no analgesic activity | analgesic activity on separate administration (tramadol study): did not exhibit analgesic activity

[Cl-].[Cl-].[Mg+2] [normal magnesium chloride, Magnesium chloride]
activity on dihydrocodeine analgesia in comparison (to micronized form / to magnesium lactate) [1]: somewhat weaker

N[C@@H](CC(=O)[O-])C(=O)[O-].N[C@@H](CC(=O)[O-])C(=O)[O-].[H+].[H+].[Mg+2] [magnesium hydroaspartate, Magnesium hydroaspartate]
effect on oxycodone analgesia [3]: also enhanced oxycodone analgesia

[Cl-].[Cl-].[Mg+2] [magnesium chloride, Magnesium chloride]
enhancement of tramadol analgesia lasted until [2]: 90 min | time at which enhancement of tramadol analgesia appeared [2]: 5 min | time of maximum activity on tramadol analgesia [2]: 15 min

N[C@@H](CC(=O)O)C(=O)O [normal magnesium hydroaspartate, Magnesium hydroaspartate]
activity on codeine analgesia compared to micronized form (single administration): significantly weaker | activity on dihydrocodeine analgesia in comparison (to micronized form / to magnesium lactate) [1]: significantly weaker | activity on morphine analgesia in comparison (to micronized magnesium lactate / to micronized form) (single administration): much weaker | activity on oxycodone analgesia compared to micronized form [3]: enhanced oxycodone analgesia significantly less when compared to the micronized form | analgesic activity on separate administration (codeine study): did not exhibit analgesic activity | analgesic activity / pain perception threshold on separate administration (dihydrocodeine study): did not exhibit analgesic activity | analgesic activity / pain threshold when administered alone (morphine study): did not alter the pain threshold | analgesic activity on separate administration (oxycodone study): showed no analgesic activity | analgesic activity on separate administration (tramadol study): did not exhibit analgesic activity
